Test results from patent publication US20110144039A1, “ANTIOXIDATIVE AND HEPATOPROTECTIVE COMPOSITIONS CONTAINING DIARYHEPTANOIDS FROM ALNUS JAPONICA” (RNL BIO CO., LTD., priority 2009, published 2011).
Read-outs that look alike come from different tables or passages of the source.

What was measured:
[1] = tested on: primarily cultured hepatocytes of rats; experiment: Hepatoprotective activity: inhibition of tert-butyl hydroperoxide-induced necrosis (LDH release) in primary hepatocytes; assay type: cell-based, white rats; conditions: 1.2 mM tBH for 50 minutes
Description: In order to measure the hepatoprotective activities of the A. japonica sample fractions, the primarily cultured hepatocytes of white rats were isolated, and then the inhibitory abilities of the fractions against necrosis induced by treating the isolated hepatocytes with 1.2 mM of tert-butyl hydroperoxide for 50 minutes were examined (Park E J et al., Planta Med, 71: 508˜513, 2005).
Hepatocytes were isolated from white rats according to the method of Seglen et al. Briefly, white rats were anesthetized and the abdomen was incised. Then, a catheter was inserted into the portal vein and perfused with Ca^2+, Mg^2+-free Hank's balanced salt solution bubbled with a mixed gas of 5% CO2 and 95% O2 at 37° C. so as to remove blood from the liver. Then, the catheter was perfused with 0.05% type IV collagenase and 1 mM CaCl2 solution. The liver tissue was removed from the body, and a hepatocyte suspension was prepared from the liver tissue and centrifuged at 50×g for 2 minutes. The precipitated hepatocytes were collected and washed twice with Ca^2+, Mg^2+-free Hank's balanced salt solution. The washed hepatocytes were added at a concentration of 1×10^6 cells/ml to Williams' Medium E (WME, GibcoBRL, USA) containing 10% (v/v) fetal bovine serum (FBS, GibcoBRL), 10^−8 M insulin, 50 U/ml of penicillin and 50 μg/ml of streptomycin (Sigma) in an incubator coated with type I collagen, and were then cultured under 5% CO2 at 37° C. After 2 hours of the culture, the cells were washed with Hank's balanced salt solution to remove non-adhered cells, and the medium was replaced with fresh medium. Then, the cells were cultured under 5% CO2 at 37° C. for 16 hours and then used in the experiment.
Herein, tBH is metabolized into free radical intermediates, which initiate lipid peroxidation to affect the cell integrity, and release LDH into the medium, thus forming covalent bonds with cellular molecules causing damage to the cells.

[2] = TOSC (total oxyradical scavenging capacity) assay, peroxyl radicals generated from ABAP; assay type: biochemical; conditions: both oxyradicals; for scavenging capacity for peroxyl radicals and peroxynitrite: rank in words
Description: In order to measure the antioxidative activities of the A. japonica sample fractions, the radical scavenging capacities of the fractions were measured in the following manner using the total oxyradical scavenging capacity (TOSC) assay. The TOSC assay was performed by a modification of the method proposed by Winston et al. (Free Radic. Biol. Med., 24: 480˜493, 1998) (J. Agric. Food Chem. 56, 10510-10514, 2008).
Peroxyl radicals were generated by the thermal homolysis of 2,2′-azobisamidinopropane (ABAP) at 35° C., and peroxynitrite was generated by the spontaneous decomposition of SIN-1.
Then, a total volume of 1 ml of the reaction solution was placed in a 10-ml vial sealed with a rubber septum. For detection of the produced ethylene gas, a gas chromatograph (GC), equipped with a DB-05 capillary column and a flame ionization detector) (FID), was used, an oven set was 60° C., and the injector and the detector were set at 180° C. As a mobile phase, helium was injected into the column at a rate of 2 ml/min. For quantitative determination of the amount of ethylene gas in the vial, 150 μl of gas was sampled from the vial with a gas-tight syringe using a headspace technique and injected into the injector.
The area under the kinetic curve (AUC) was obtained by integrating the graph determined from the results of the above experiment, and the TOSC value was calculated according to the following equation 1 and shown in Table 1 below:
TOSC=100−(∫SA/∫CA×100) [Equation 1]

[3] = Rattus norvegicus, Hepatocyte, 50 min, means ± SE of three independent experiments in triplicate, read-out: ED50 (the source's name)
[4] = Rattus norvegicus, Hepatocyte, 50 min, read-out: LDH release inhibitory rate (ED50)
[5] = read-out: LDH release inhibitory rate (ED50)

Compound | EC50 [1, 3] [µM] | EC50 [1, 4] [µM] | scavenging capacity for peroxyl radicals and peroxynitrite [2] | EC50 [1, 5] [µM] | activities against reactive oxygen species ([2]; in words) | effect on the inhibition of LDH release ([1]; in words)
COc1cc(C2Oc3cc([C@H]4Oc5cc(O)cc(O)c5C(=O)[C@@H]4O)ccc3OC2CO)ccc1O (stereo partly shown) [Silibinin, reference compound] | 131 ± 6.7 | 131 | – | – | – | –
O=C(CCc1ccc(O)c(O)c1)C[C@@H](O)CCc1ccc(O)c(O)c1 [hirsutanonol] | 6.28 ± 0.81 | 6.28 | highest | – | – | –
O=C(/C=C/CCc1ccc(O)c(O)c1)CCc1ccc(O)c(O)c1 [hirsutenone] | 3.08 ± 0.14 | 3.08 | highest | – | – | –
alnuside A | – | – | second highest | 26.5 | – | –
alnuside B | – | – | second highest | 25.9 | – | –
platyphyllonol-5-xylose [Platyphyllone-5-xylose] | – | – | – | – | weak | no effect
rubranoside C | – | – | second highest | 12.8 | – | –
